This is an account of results in patent US12213501B2, “Methods for modifying high intensity sweetener glycosides” (Optibiotix Limited, priority 2018, dated 2025).

Experiment [1] is described as follows: Reported bitterness of steviol glycosides and sucrose equivalence (literature). It counts as in vivo, human. The text has this:
Often sweeteners are compared to sucrose at 8% sucrose equivalent (Prakash, G. E. DuBois, J. F. Clos, K. L. Wilkens, L. E. Fosdick. (2008). Development of rebiana, a natural, non-caloric sweetener. Food and Chemical Toxicology. Volume 46, Issue 7, Pages S75-S82. Previous literature (Caroline Hellfritsch, Anne Brockhoff, Frauke Stähler, Wolfgang Meyerhof, and Thomas Hofmann (2012). Human Psychometric and Taste Receptor Responses to Steviol Glycosides. Journal of Agricultural and Food Chemistry 2012 60 (27), 6782-6793) has shown bitterness of steviol glycosides to be most obvious at around 1000 μM which for Rebaudioside A would be 0.97 g/L, equivalent to 24% sucrose. However, solutions of 100 μM are also bitter which for Rebaudioside A would be 0.097 g/L, equivalent to 2.4% sucrose. Therefore, it was decided to test solutions at equivalent sweetness levels above 2% sucrose to ensure that both sweetness and bitterness could be evaluated in levels applicable to final application.

Experiment [2] in a line: Initial tasting against sucrose standards. It counts as in vivo. The conditions noted are these: all samples at 0.32 g/L, compared with Steviol glycosides. Here is the method: For the initial tasting sucrose standards were prepared at 4, 6, 8 and 10% (w/v) sucrose. Aiming for 8% sucrose equivalence all HIS and enzyme modified samples were also prepared at 0.32 g/L. From the initial tasting it had been concluded that the sucrose standard range needed to be reduced to 2, 4, 6 and 8% as the 10% sample was too extreme.

The next experiment concerns trained sensory panel. As to the kind of experiment: Sensory profiling (QDA) of sweetener samples by trained sensory panel. It counts as in vivo, human. The conditions noted are these: for Sweet Taste Intensity: Table 3, concentration printed 0.032 g/L (steviol glycosides samples) or 0.024 g/L (others); for ES (equivalent sucrose concentration): from mean sweetness rating via Sweetness=15.5 (sucrose)-22.5; for ES (equivalent sucrose concentration) / Potency: concentration 0.032 or 0.024 g/L; for Bitter Taste / Cardboard/Stale Flavour / Cooked sugar flavour / Cooling Sensation / Crusty Bread Flavour / Liquorice Flavour / Metallic / Overall Strength of Off Taste/Flavour / Perfume Flavour / Salty Taste / Sour Taste / Sweet Taste / Bitter Aftertaste / Cooling Aftereffect / Liquorice Aftereffect / Sweet Aftertaste: mean rating, line scale 0-100, Stevia samples 0.32 g/L, Reb and Mogroside samples 0.24 g/L water; for Bitter Aftertaste / Cooling Aftereffect / Liquorice Aftereffect / Sweet Aftertaste: scored after 30 second delay; for Potency: sweet potency relative to sucrose; for liquorice flavour compared between sweeteners: unmodified sweeteners; for Mean Rating (0-100): sweetness as agreed by the panel.

For experiment [3] the following is noted: reported; cited from earlier work.
[4] abbreviates: modified high intensity sweetener compared to un-modified.

Marks after values point to notes of the source that are not given here.

As for `C=C1C[C@@]23CC[C@H]4[C@@](C)(CCC[C@@]4(C)C(=O)O[C@@H]4O[C@H](CO)[C@@H](O)[C@H](O)[C@H]4O)[C@@H]2CC[C@]1(O[C@@H]1O[C@H](CO)[C@@H](O)[C@H](O[C@@H]2O[C@H](CO)[C@@H](O)[C@H](O)[C@H]2O)[C@H]1O[C@@H]1O[C@H](CO)[C@@H](O)[C@H](O)[C@H]1O)C3` [Reb, Rebaudioside A], in experiment [1] (100 μM = 0.097 g/L), the equivalent sucrose amounted to 2.4 % sucrose. For the same compound, in experiment [1] (1000 μM = 0.97 g/L), the equivalent sucrose is listed as 24 % sucrose. Also, the “sweetness in initial tasting” value in experiment [2] is “considered sweeter than the Steviol glycosides”. The “effect of enzyme modification on sweetness” value in the experiment with trained sensory panel (CGTase modified vs unmodified) is given as “reduced the sweetness”. The “sweetness compared between sweeteners” value in the experiment with trained sensory panel (Rebaudioside A 0.24 g/L vs Steviol glycosides 0.32 g/L and Mogroside V 0.24 g/L) was “significantly more sweet”. Besides, in the experiment on trained sensory panel, the “Sweet Taste Intensity” value was found to be 60.3, the “ES (equivalent sucrose concentration)” value amounted to 5.3%, the “Bitter Taste” value is recorded as 10.8^bc and the “Cardboard/Stale Flavour” value is 0.6^c. For the same compound, in the experiment with trained sensory panel, the Cooked sugar flavour is listed as 3.9^a, the “Cooling Sensation” value is listed as 4.7^a, the “Crusty Bread Flavour” value is 0.5^bc and the “Liquorice Flavour” value is on record as 24.2^a. Besides, in the experiment with trained sensory panel, the Metallic is 2.7^bc, the “Overall Strength of Off Taste/Flavour” value is recorded as 31.9^bc, the “Perfume Flavour” value is listed as 0.4^a and the “Salty Taste” value was 1.6^a. Further, in the experiment on trained sensory panel, the “Sour Taste” value is reported as 0.9^b, the “Sweet Taste” value is given as 60.3^a, the “Bitter Aftertaste” value is 6.5^bc and the “Cooling Aftereffect” value was 2.1^a. Besides, in the experiment with trained sensory panel, the “Liquorice Aftereffect” value is listed as 11.6^bc, the “Sweet Aftertaste” value is recorded as 34.8^a, the Potency stood at 223 and the “liquorice flavour compared between sweeteners” value is recorded as “equivalent in liquorice flavour”. For the same compound, the “sweet potency relative to sucrose” value in experiment [3] is given as around 250 ×.
On to `C[C@H](CC[C@@H](O[C@@H]1O[C@H](CO[C@@H]2O[C@H](CO)[C@@H](O)[C@H](O)[C@H]2O)[C@@H](O)[C@H](O)[C@H]1O[C@@H]1O[C@H](CO)[C@@H](O)[C@H](O)[C@H]1O)C(C)(C)O)[C@H]1CC[C@@]2(C)[C@@H]3CC=C4[C@@H](CC[C@H](O[C@@H]5O[C@H](CO[C@@H]6O[C@H](CO)[C@@H](O)[C@H](O)[C@H]6O)[C@@H](O)[C@H](O)[C@H]5O)C4(C)C)[C@]3(C)[C@H](O)C[C@]12C` [Mogroside, Mogroside V], for which, in experiment [2], the “sweetness in initial tasting” value is recorded as “considered sweeter than the Steviol glycosides”. Also, in the experiment with trained sensory panel (CGTase modified vs unmodified), the “effect of enzymatic modification on liquorice flavour” value is given as “significantly reduced” and the “effect of enzyme modification on sweetness” value is listed as “reduced the sweetness”. For the same compound, in the experiment on trained sensory panel, the “Sweet Taste Intensity” value is 47.3, the “ES (equivalent sucrose concentration)” value was 4.5%, the “Bitter Taste” value is reported as 7.3^c and the “Cardboard/Stale Flavour” value is reported as 0.7^c. In the experiment on trained sensory panel, the Cooked sugar flavour was 3.2^ab, the “Cooling Sensation” value is listed as 2.6^ab, the “Crusty Bread Flavour” value is reported as 3.3^a and the “Liquorice Flavour” value is 21.4^a. In the experiment on trained sensory panel, the Metallic is 3.4^b, the “Overall Strength of Off Taste/Flavour” value is 25.6^cd, the “Perfume Flavour” value was 0.3^a and the “Salty Taste” value is 0.8^a. In the experiment on trained sensory panel, the “Sour Taste” value was 1.2^b, the “Sweet Taste” value was 47.3^b, the “Bitter Aftertaste” value is 4.6^c and the “Cooling Aftereffect” value is 1.6^ab. Moreover, in the experiment with trained sensory panel, the “Liquorice Aftereffect” value was 10.8^bc, the “Sweet Aftertaste” value is given as 28.2^b, the Potency is 188 and the “liquorice flavour compared between sweeteners” value was “equivalent in liquorice flavour”. Further, in the experiment on trained sensory panel (setting [4]), the “Bitter taste: reduction %” value was found to be 0%, the “Bitter taste: reduction ratio” value was determined as 0, the “Liquorice taste: reduction %” value amounted to 41% and the “Liquorice taste: reduction ratio” value is 1.7. Also, in the experiment with trained sensory panel (setting [4]), the “Metallic: reduction %” value came out at 67% and the “Metallic: reduction ratio” value came to 3. Further, in experiment [3], the “sweet potency relative to sucrose” value is around 400 ×.
In the case of `OC[C@H]1O[C@@](CO)(O[C@H]2O[C@H](CO)[C@@H](O)[C@H](O)[C@H]2O)[C@@H](O)[C@@H]1O` [Sucrose], the “Mean Rating (0-100)” value in the experiment with trained sensory panel (sucrose standard 1, 2.0 % w/v) is 10; in the experiment on trained sensory panel (sucrose standard 2, 4.0 % w/v), 35; in the experiment on trained sensory panel (sucrose standard 3, 6.0 % w/v) it was 75; in the experiment with trained sensory panel (sucrose standard 4, 8.0 % w/v) it was 100.
